# From the OPERA property sets (Mansouri et al. 2018)
# Peptide text beside a SMILES is read from it.
row,SMILES,logP
1,O=C1Cc2ccccc2N1,1.16
2,CC(C)COC(=O)n1cnc(CC(NC(=O)C2CCC(=O)N2)C(=O)N2CCCC2C(N)=O)c1 (stereo not drawn),-0.44
3,COc1cc(CCN)cc(OC)c1OC,0.78
4,C=CCOc1cc(N)ccc1C(=O)O,1.25
5,CC(C)CC(=O)NN,-0.31
6,CCCCOc1c(OC)cc(CCN)cc1OC,2.32
7,CC(=O)Nc1cc(C(=O)NN)ccn1,-1.25
8,c1ccc(-c2ccc3ccccc3n2)cc1,3.9
9,CNC(=O)Oc1cc(C)cc(C(C)C)c1,3.1
10,Nc1ccn([C@@H]2C=C(CO)[C@@H](O)[C@H]2O)c(=O)n1,-2.45
11,COc1ccc(OC(=O)N(C)C)cc1,1.53
12,Nc1cc([N+](=O)[O-])ccc1C(=O)O,1.91
13,O=C1CCCCCCN1,0.24
14,O=S(=O)(Nc1ccccc1)C(F)F,1.95
15,Nc1nc(N)c2ccccc2n1,1
16,CCOP(=S)(OCC)SCSc1ccc(Cl)cc1,5.33
17,CCOc1ccc(S(I)=C(N(C)C)N(C)C)cc1 (stereo not drawn),-0.06
18,Nc1ccc(S(=O)(=O)Nc2ccnn2-c2ccccc2)cc1,1.52
19,C1=COCCC1,0.69
20,O=Nc1ccc(O)cc1,1.29
21,S=C=Nc1ccc2ccccc2c1,4.34
22,CN(C)c1nc(Cl)nc(N(C)C)n1,2.31
23,Clc1ccc(Cl)c(-c2c(Cl)ccc(Cl)c2Cl)c1,6.55

row,SMILES,logP
1,Nc1ccc(S(=O)(=O)Nc2ccc(Cl)cc2)cc1,2.71
2,CCN(O)C(N)=O,-0.1
3,Cc1ccc(C(O)c2ccccc2)cc1 (stereo not drawn),3.13
4,CNC(=O)Oc1ccc(OC)cc1,1.2
5,CCNCCc1cccnc1,0.54
6,O=Cc1ccccc1Cl,2.33
7,c1ccc2nc3ccccc3nc2c1,2.84
8,COc1ccccc1NC(C)=O,0.67
9,CCc1ccc(S(N)(=O)=O)cc1,1.31
10,Cc1c2ccccc2c(C)c2c1ccc1ccccc12,5.8
11,CC(=O)OCC(=O)[C@@]12OC(C)(C)O[C@@H]1C[C@H]1[C@@H]3C[C@H](F)C4=CC(=O)C=C[C@]4(C)[C@@]3(F)[C@@H](O)C[C@@]12C,3.19
12,CSc1cccc(N)c1,1.45
13,CN1CCN(C2=Nc3cc(Cl)ccc3Nc3ccccc32)CC1,3.23
14,O=C(Nc1ccccc1)Nc1ccc(Cl)c(Cl)c1,4.7
15,CN(C)C,0.16
16,CC(C)(Oc1ccccc1)C(=O)N[C@@H]1C(=O)N2[C@@H]1SC(C)(C)[C@@H]2C(=O)O,2.76
17,C[C@@H]1C[C@H]2[C@@H]3CCC4=CC(=O)C=C[C@]4(C)[C@@]3(F)[C@@H](O)C[C@]2(C)[C@H]1C(=O)CO,2.35
18,CC(C)(C)c1cccc(C(C)(C)C)c1O,4.92
19,NS(=O)(=O)c1cc2c(cc1Cl)N=CNS2(=O)=O,-0.24
20,Clc1ccc(-c2ccccc2Cl)c(Cl)c1,5.76
21,O=C(O)CCCCCCc1ccccc1,3.63
22,OCCCCCc1cccnc1,1.41
23,CC(C)c1ccccc1N,2.12

row,SMILES,logP
1,CC(=O)Oc1ccccc1C(C)C,2.78
2,CCOC(=O)OCC,1.21
3,O=C1OCc2c(Cl)c(Cl)c(Cl)c(Cl)c21,3.2
4,CC(C)NNC(=O)COc1cccc(Cl)c1,1.91
5,CC(=O)c1ccc(O)cc1,1.35
6,CNc1nc(NC(C)C)nc(SC(F)F)n1,3.27
7,O=C1C=CC(=O)N1c1ccccc1,1.09
8,Nc1cccc([N+](=O)[O-])c1N,1.27
9,O=C(c1ccccc1)c1cccnc1,1.88
10,COc1ccc(N(C)C)cc1,1.42
11,CC12CCC(=O)C=C1CCC1C3CCC(O)(C(=O)CO)C3(C)CC(O)C12F (stereo not drawn),1.67
12,CC(=O)c1ccncc1,0.48
13,O=C(O)CCCCN1C(=O)C=CC1=O,0.6
14,NC(=O)NNC(=O)c1ccccc1,-0.5
15,Cc1ccc(OC(=O)c2ccc(N)cc2O)cc1,3.38
16,O=C1C2(Cl)C3(Cl)C4(Cl)C(Cl)(Cl)C5(Cl)C3(Cl)C1(Cl)C5(Cl)C24Cl (stereo not drawn),5.41
17,CCCCC(CC)CN (stereo not drawn),2.82
18,CNC(=O)Oc1ccc(SC)cc1,1.92
19,COc1cccc(C(=O)NC2CC3CCC(C2)N3Cc2ccccc2)c1OC (stereo not drawn),3.24
20,O=Cc1ccc2cccccc1-2,2.64
21,O=C1C=C(N2CCCC2)C(=O)C=C1N1CCCC1,1.97
22,c1cocn1,0.12
23,CCOC(=O)C(=Cc1ccc(OC)cc1OC)C(C)=O,2.41

row,SMILES,logP
1,FC(F)(F)C(Cl)Br (stereo not drawn),2.3
2,NC(=O)Cc1ccccn1,-0.65
3,CCOC(=O)C(=Cc1ccc(F)cc1)C(=O)OCC,3.1
4,COP(=S)(OC)Oc1nc(Cl)c(Cl)cc1Cl,4.31
5,CCCC(=NOCC)C1C(=O)CC2(CCCCC2C)OC1=O (stereo not drawn),3.9
6,O=C1C=C(Br)C(=O)c2ccccc21,2.44
7,O=C(CN1CCCCC1)Nc1cccc([N+](=O)[O-])c1,2.59
8,Fc1cccnc1,0.77
9,BrCCCc1ccccc1,3.72
10,CCNC(=O)c1ccc(S(N)(=O)=O)cc1,0.03
11,Cc1ccc(O)c(C(=O)O)c1,2.78
12,COc1nccnc1NS(=O)(=O)c1ccc(N)cc1,0.7
13,Cc1ccc(NS(=O)(=O)c2ccc(N)cc2)cc1,2.11
14,CCc1ccc(OC(C)=O)cc1,2.56
15,O=[N+]([O-])c1nccn1CC(F)CO (stereo not drawn),-0.38
16,N#Cc1ccc(C#N)cc1,0.93
17,C1CC1,1.72
18,Cc1cc(-c2ccc(N)c(C)c2)ccc1N,2.34
19,CN1C(CCl)Nc2cc(Cl)c(S(N)(=O)=O)cc2S1(=O)=O (stereo not drawn),1.42
20,COCC(F)Cn1ccnc1[N+](=O)[O-] (stereo not drawn),0.18
21,OCCCCCc1ccccn1,1.28
22,CCNc1nc(Cl)nc(NC(C)(C)C#N)n1,2.22
23,CC(C)c1ccc([N+](=O)[O-])cc1,3.45

row,SMILES,logP
1,CCOc1cn[nH]c1,0.8
2,OCCOc1ccccc1,1.16
3,CCCCNCCCC,2.83
4,CCCC(=O)O[C@]1(C(=O)CCl)[C@@H](C)C[C@H]2[C@@H]3CCC4=CC(=O)C=C[C@]4(C)[C@@]3(F)C(=O)C[C@@]21C,3.76
5,O=C1CC(OC(=O)c2ccccc2)N1 (stereo not drawn),1.37
6,O=C(NP(=O)(N1CC1)N1CC1)c1ccc(I)cc1,2.25
7,CCCc1cc(C(=O)NN)ccn1,0.63
8,CC1CN1C1=CC(=O)c2ccccc2C1=O (stereo not drawn),2.17
9,COc1ccc(C=C(C(C)=O)C(C)=O)c(OC)c1,1.88
10,O=C(COc1ccccc1)NNCc1ccccc1,2.16
11,CCCCOc1cccnn1,1.8
12,Cc1ccc(-c2nc(N)nc(N)n2)cc1,1.92
13,CNC(C)Cc1ccccc1 (stereo not drawn),2.07
14,CSc1ccc2ccccc2n1,3.04
15,c1ccc2c(c1)Cc1ccccc1C2,4.25
16,CCI,2
17,Nc1ncnc2c1ncn2C1CC(O)C(CO)O1 (stereo not drawn),-0.55
18,Clc1ccc(C(c2ccc(Cl)cc2)C(Cl)(Cl)Cl)cc1,6.91
19,CS(=O)c1ccccc1 (stereo not drawn),0.55
20,CC(=O)c1csc2ccccc12,2.78
21,S=C(NN=Cc1ccco1)Nc1ccccc1,3.13
22,CNCCN(C)C,-0.2
23,O=Cc1ccc(Cl)cc1,2.1

row,SMILES,logP
1,O=C(Oc1ccccc1)n1cc(F)c(=O)[nH]c1=O,0.64
2,Cc1cc(C)c(N(C)C)c(C)c1,4.41
3,O=C(OC(=O)c1ccccc1)c1ccccc1,2.26
4,NS(=O)(=O)NCCc1ccccc1,0.81
5,CN(C)C(=O)Oc1ccccc1,1.56
6,O=C(O)c1c(F)cccc1Cl,2.11
7,CCc1ccc[nH]1,1.59
8,CCCCNC(=O)n1c(NC(=O)OC)nc2ccccc21,2.12
9,O=C1CNC(=O)N1,-1.69
10,O=C(O)c1cc(Cl)ccc1O,3.09
11,Sc1ccccn1,-0.13
12,CN,-0.57
13,COCc1ccccc1,1.92
14,O=[N+]([O-])c1cccc(I)c1,2.94
15,Clc1cc(Cl)nc(Cl)c1,2.68
16,CCCCCCCC1(c2ccncc2)CCC(=O)NC1=O (stereo not drawn),3.44
17,CN(C)CCN(C)S(=O)(=O)c1ccc(C(C)(C)[N+](=O)[O-])c([N+](=O)[O-])c1,1.42
18,C[C@](N)(C(=O)O)c1cccc2ccccc12,-0.22
19,Brc1ccc(-c2cc3ccccn3c2)cc1,5.43
20,CCN1CC(C(O)C(CC2CCCCC2)NC(=O)C(Cc2cnc[nH]2)NC(=O)C(CC(=O)N(C)CCO)Cc2ccccc2)OC1=O (stereo not drawn),1.94
21,O=C(O)c1ccc2oc3ccccc3c(=O)c2c1,3.12
22,CC(=O)c1ccc(N(C)C)cc1,2.1
23,CC(=O)Nc1ccc(I)cc1,2.71

row,SMILES,logP
1,CCOc1ccc2nccnc2c1,2.22
2,NC(=O)OCCC1=C(N2CC2)C(=O)C(Br)=C(N2CC2)C1=O,0.68
3,CC1=C(N2CC2)C(=O)C(CCO)=C(N2CC2)C1=O,0.49
4,CCC(=O)C1(c2cccc(OC(=O)c3ccccc3)c2)CCN(C)CC1,3.03
5,N#Cc1c2ccccc2cc2ccccc12,4.26
6,CCCCOC(=O)c1ccccc1,3.84
7,Cc1cnc(NS(=O)(=O)c2ccc(N)cc2)c(Br)c1,1.79
8,C[C@@H]1C[C@H]2C3C[C@H](F)C4=CC(=O)C=CC4(C)[C@@]3(F)[C@@H](O)CC2(C)[C@@]1(O)C(=O)COC(=O)C(C)(C)C (stereo partly drawn),3.86
9,CC[C@H](C)[C@H](NC(=O)[C@@H](NC(=O)[C@H](C)NC(C)=O)C(C)C)C(N)=O,-0.2
10,CC(=O)Nc1ccc(C(=O)O)cc1,1.31
11,CSCC[C@H](N)C(=O)O,-1.87
12,C1COCCOCCOCCO1,-0.04
13,NS(=O)(=O)CCCOc1ccc([N+](=O)[O-])cc1,0.97
14,Cn1nnnc1SCC1=C(C(=O)O)N2C(=O)C(NC(=O)CSCC#N)C2SC1 (stereo not drawn),-0.62
15,CC[C@H](C)[C@H](NC(=O)[C@H](Cc1c[nH]c2ccccc12)NC(C)=O)C(=O)NCC(N)=O (Ac-Trp-Ile-Gly-NH2),0.62
16,CC(=O)OCC(=O)[C@H]1CC[C@H]2[C@@H]3CCC4=CC(=O)CC[C@]4(C)[C@H]3CC[C@]12C,3.08
17,CN1CC[C@]23CCCC[C@H]2[C@H]1Cc1ccc(O)cc13,3.11
18,CC(=O)Nc1cccc(C(F)(F)F)c1,2.56
19,O=C(NCc1ccccc1)c1ccco1,1.81
20,Clc1cc(Cl)c(Cl)c(Cl)c1Cl,5.17
